Assay results reported in patent US20180311342A1, “IMMUNOSTIMULATING AGENT” (AJINOMOTO CO., INC., priority 2017, published 2018).
Where a name gives a salt, the structure may show the parent alone.

The compounds below were run on anti-OVA-specific IgG2a subclass antibody (assay: Adjuvant activity test: anti-OVA-specific IgG2a subclass antibody in serum of OVA-immunized mice (ELISA)). Settings: after secondary immunization, serum 2 weeks later; OVA 5 μg + compound 0.256 μmol in 5% αCD-added saline (Addavax mixed with saline at 1:1), dorsal-subcutaneous; compared to OVA single administration group.
Type: in vivo, BALB/c mice
Protocol: 8-Week-old female BALB/c mice were divided into groups (N=6), and each group was primarily immunized by dorsal-subcutaneous administration of (1) ovalbumin (OVA) (5 μg) dissolved in saline as an antigen (OVA single administration group), (2) OVA 5 μg and Addavax™ (mixed with saline at 1:1) dissolved in saline (Addavax™ administration group) as positive control adjuvant, (3) OVA 5 μg and SZ137 0.256 μmol dissolved or dispersed in 5% α-cyclodextrin (hereinafter to be simply referred to as αCD)-added saline (SZ137 administration group), (4) OVA (5 μg) and SZ138 (0.256 μmol) dissolved or dispersed in 5% αCD-added saline (SZ138 administration group), (5) OVA (5 μg) and SZ142 (0.256 μmol) dissolved or dispersed in 5% αCD-added saline (SZ142 administration group), (6) OVA (5 μg) and SZ144 (0.256 μmol) dissolved or dispersed in 5% αCD-added saline (SZ144 administration group), (7) OVA (5 μg) and SZ145 (0.256 μmol) dissolved or dispersed in 5% αCD-added saline (SZ145 administration group), (8) OVA (5 μg) and SZ146 (0.256 μmol) dissolved or dispersed in 5% αCD-added saline (SZ146 administration group), (9) OVA (5 μg) and SZ147 (0.256 μmol) dissolved or dispersed in 5% αCD-added saline (SZ147 administration group), (10) OVA (5 μg) and SZ148 (0.256 μmol) dissolved or dispersed in 5% αCD-added saline (SZ148 administration group), each per mouse. Two week later, the secondary immunization was carried out by dorsal-subcutaneous administration of solutions or dispersions similar to those of the above-mentioned (1)-(10) again. Two weeks from the secondary immunization, the whole blood was extracted under anesthesia, and the obtained serum sample was measured for anti-OVA-specific IgG1 subclass antibody, anti-OVA-specific IgG2a subclass antibody, and anti-OVA-specific IgE antibody.
The measurement method of the anti-OVA-specific IgG1 subclass antibody and anti-OVA-specific IgG2a subclass antibody in Experimental Example 1 and the following Experimental Examples 2-10 is as follows.
To a 96 well plate was added 5 μg/ml OVA at 100 µl/well, and the mixture was incubated at 4° C. overnight. After incubation, the mixture was washed three times with 200 μl of PBS-T (PBS (phosphate buffered saline)+0.05% (v/v) Tween 20) per well, and blocked with 100 μl of 5% FCS (fetal calf serum)/PBS solution per well at room temperature for 1-2 hr. Thereafter, the mixture was washed three times with PBS-T (200 μl/well), a diluted serum sample (100 l/well) or the same amount of 5% FCS/PBS solution as a control was added, and the mixture was incubated at 37° C. for 1 hr. To calculate concentration of the antibody, the standard of an anti-OVA-specific IgG1 subclass antibody diluted with 2% FCS/PBS solution was added at 100 ng/ml, 50 ng/ml, 25 ng/ml, 12.5 ng/ml, 6.25 ng/ml, 3.125 ng/ml, 1.56 ng/ml, 0.781 ng/ml, 0.391 ng/ml, 0.195 ng/ml, 0.098 ng/ml, 0 ng/ml, per 1 well. When an anti-OVA-specific IgG2a subclass antibody was measured, the standard of an anti-OVA-specific IgG2a subclass antibody was added at 50 ng/ml, 25 ng/ml, 12.5 ng/ml, 6.25 ng/ml, 3.125 ng/ml, 1.56 ng/ml, 0.781 ng/ml, 0.391 ng/ml, 0.195 ng/ml, 0.098 ng/ml, 0.049 ng/ml, 0 ng/ml, per 1 well. Thereafter, similar to the samples, the mixture was washed five times with PBS-T (200 μl/well), a diluted biotinylated anti-mouse IgG1 antibody and IgG2a antibody were added (100 μl/well), and the mixture was incubated at 37° C. for 45 min. Thereafter, the mixture was washed five times with PBS-T (200 μl/well), a diluted anti-biotin-HRP antibody was added (100 μl/well), and the mixture was incubated at 37° C. for another 30 min. Thereafter, the mixture was washed five times with PBS-T (200 μl/well), TMB substrate solution was added (100 μl/well), and the mixture was incubated at room temperature for 10-15 min. Thereafter, a reaction quenching liquid (2N sulfuric acid solution) was added (50 l/well) to discontinue a color developing reaction, and the absorbance (OD Value=450 nm) was measured by a microplate reader. […]

Structure (SMILES)	anti-OVA-specific IgG2a subclass antibody production
CCCCCCCCCCCCCCCCCC(=O)N[C@@H](CCCNC(=N)N)C(=O)NCCCCCCCC.Cl [SZ182, N-[(1S)-4-guanidino-1-(octylcarbamoyl)butyl]octadecanamide hydrochloride]	showed a tendency to increase
CCCCCCCCCCCCCCCCCCCCCC(=O)N[C@@H](C)C(=O)NCCCCCCCCCCCC [SZ145, N-[(1S)-2-(dodecylamino)-1-methyl-2-oxo-ethyl]docosanamide]	showed a tendency to increase
CCCCCCCCCCCCCCCCCCCCCC(=O)N[C@@H](CCCCN)C(=O)NCCCCCCCCCCCC.Cl [SZ160, N-[(1S)-5-amino-1-(dodecylcarbamoyl)pentyl]docosanamide hydrochloride]	showed a tendency to increase
CCCCCCCCCCCCCCCCCCCCCC(=O)N1CCC(C(=O)NCCCCCCCCCCCC)CC1 [SZ156, 1-docosanoyl-N-dodecyl-piperidine-4-carboxamide]	showed a tendency to increase
CCCCCCCCCCCCCCCCOC(=O)N[C@@H](CCCNC(=N)N)C(=O)NCCCCCCCCCCCC.Cl [SZ150, Hexadecyl N-[(1S)-1-(dodecylcarbamoyl)-4-guanidino-butyl]carbamate hydrochloride]	significantly increased
CCCCCCCCCCCCCCCCCCCCCC(=O)N[C@@H](CCCNC(=N)N)C(=O)N(CCCCCCC)CCCCCCC.Cl [SZ159, N-[(1S)-1-(diheptylcarbamoyl)-4-guanidino-butyl]docosanamide hydrochloride]	showed a tendency to increase
CCCCCCCCCCCCCCCCOC(=O)N[C@@H](CCCNC(=N)N)C(=O)NCCCCCCCC.Cl [SZ215, hexadecyl N-[(1S)-4-guanidino-1-(octylcarbamoyl)butyl]carbamate hydrochloride]	significant enhancement
CCCCCCCCCCCCCCCC(=O)N[C@@H](CC(C)C)C(=O)NCCCCCCCCCCCC [SZ144, N-[(1S)-1-(dodecylcarbamoyl)-3-methyl-butyl]hexadecanamide]	showed a tendency to increase
CCCCCCCCCCCCCCCCCCCCCC(=O)N[C@@H](CCCC)C(=O)NCCCCCCCCCCCC [SZ155, N-[(1S)-1-(dodecylcarbamoyl)pentyl]docosanamide]	showed a tendency to increase
CCCCCCCCCCCCCCCCCCCCCC(=O)N[C@@H](CCCNC(=N)N)C(=O)NCCCCCCCCCCCC.Cl [SZ138, N-[(1S)-1-(dodecylcarbamoyl)-4-guanidino-butyl]docosanamide hydrochloride]	showed a tendency to increase
CCCCCCCCCCCCCCCCCCCCCC(=O)N[C@@H](CCCNC(=N)N)C(=O)NCCCCCCC.Cl [SZ163, N-[(1S)-4-guanidino-1-(heptylcarbamoyl)butyl]docosanamide hydrochloride]	tended to increase
CCCCCCCCCCCCCCCCOC(=O)N[C@@H](CCCNC(=N)N)C(=O)NCCCCCC.Cl [SZ169, Hexadecyl N-[(1S)-4-guanidino-1-(hexylcarbamoyl)butyl]carbamate hydrochloride]	tended to increase
CCCCCCCCCCCCCCCCCC(=O)N[C@@H](CCCCNC(=N)N)C(=O)NCCCCCCCCCCCC.Cl [SZ205, N-[(1S)-1-(dodecylcarbamoyl)-5-guanidino-pentyl]octadecanamide hydrochloride]	significant enhancement
CCCCCCCCCCCCCCCCOC(=O)N[C@@H](CCCCN)C(=O)NCCCCCCCCCCCC.Cl [SZ189, hexadecyl N-[(1S)-5-amino-1-(dodecylcarbamoyl)pentyl]carbamate hydrochloride]	significant enhancement
CCCCCCCCCCCCCCCCNC(=O)N[C@@H](CC(C)C)C(=O)NCCCCCCCC [SZ201, (2S)-2-(hexadecylcarbamoylamino)-4-methyl-N-octyl-pentanamide]	tended to increase
CCCCCCCCCCCCCCCCNC(=O)NCCCCNC(=N)N.Cl [SZ190, 1-(4-guanidinobutyl)-3-hexadecyl-urea hydrochloride]	showed a tendency to increase
CCCCCCCCCCCCCCCC(=O)N[C@@H](CCCNC(=N)N)C(=O)NCCCCCCCC.Cl [SZ181, N-[(1S)-4-guanidino-1-(octylcarbamoyl)butyl]hexadecanamide hydrochloride]	showed a tendency to increase
CCCCCCCCCCCCNC(=O)[C@H](CCCNC(=N)N)N(CCCCCCC)CCCCCCC [SZ207, (2S)-2-(diheptylamino)-N-dodecyl-5-guanidino-pentanamide dihydrochloride]	significant enhancement
CCCCCCCCCCCCCCCCCCCCCC(=O)NCCC(=O)NCCCCCCCCCCCC [SZ147, N-[3-(dodecylamino)-3-oxo-propyl]docosanamide]	showed a tendency to increase
CCCCCCCCCCCCCCCCCCCC(=O)N[C@@H](CCCNC(=N)N)C(=O)NCCCCCCCCCCCC.Cl [SZ180, N-[(1S)-1-(dodecylcarbamoyl)-4-guanidino-butyl]icosanamide hydrochloride]	significant enhancement
CCCCCCCCCCCCCCCCCC(=O)N[C@H](CCCNC(=N)N)C(=O)NCCCCCCCCCCCC.Cl [SZ191, N-[(1R)-1-(dodecylcarbamoyl)-4-guanidino-butyl]octadecanamide hydrochloride]	significant enhancement
CCCCCCCCCCCCCCCCNC(=O)N[C@@H](CCCCN)C(=O)NCCCCCCCCCCCC.Cl [SZ214, (2S)-6-amino-N-dodecyl-2-(hexadecylcarbamoylamino)hexanamide hydrochloride]	significant enhancement
CCCCCCCCCCCCCCCCCCNC(=O)N[C@@H](CCCNC(=N)N)C(=O)NCCCCCCCCCCCC.Cl [SZ211, (2S)—N-dodecyl-5-guanidino-2-(octadecylcarbamoylamino)pentanamide hydrochloride]	significant enhancement
CCCCCCCCCCCCCCCCCC(=O)N[C@@H](CC(C)C)C(=O)NCCCCCCCC [SZ196, N-[(1S)-3-methyl-1-(octylcarbamoyl)butyl]octadecanamide]	tended to increase
CCCCCCCCCCCCCCCCCCCCCC(=O)N[C@@H](CCCN)C(=O)NCCCCCCCCCCCC.Cl [SZ165, N-[(1S)-4-amino-1-(dodecylcarbamoyl)butyl]docosanamide hydrochloride]	tended to increase
CCCCCCCCCCCCNC(=O)[C@H](CCCNC(=N)N)NC(=O)OCCCCCCCCCCCC.Cl [SZ187, dodecyl N-[(1S)-1-(dodecylcarbamoyl)-4-guanidino-butyl]carbamate hydrochloride]	significant enhancement
